From publication PMC10321640, “The VIPR2-selective antagonist KS-133 changes macrophage polarization and exerts potent anti-tumor effects as a single agent and in combination with an anti-PD-1 antibody” (PLOS ONE, 2023)
Where a SMILES comes first, the peptide text is derived from it. Bridges are numbered along the chain shown (N, C = ends).

Assay: In vivo pharmacokinetic study, plasma LC-MS/MS
Settings: mouse, iv, 1 nmol/g body weight, male ICR mice, mean ± SD
From the text: These animal experiments were approved by the Animal Care and Use Committee of Osaka University (approval No. Douyaku 30-3-2) and conducted at Osaka University in accordance with the aforementioned guidelines. LC–MS/MS data were obtained using an LCMS-8060NX MS system (Shimadzu Corp., Kyoto, Japan) connected to a Nexera X3 UHPLC system (Shimadzu) equipped with a Peptide BEH C18 column (1.7 μm, 2.1 × 50 mm, Waters Corp., Milford, MA, USA). Mobile phase A was 0.1% formic acid in water, and mobile phase B was acetonitrile. The elution profile of mobile phase B was 5% isocratic between 0 to 1 min, linear gradient from 5% to 50% between 1 to 1.5 min, and increase from 50% to 75% between 1.5 to 3 min. The flow rate was 0.2 mL/min. For pharmacokinetic studies, free or nanoformulated KS-133 was administered intravenously or subcutaneously to male ICR mice at 1 nmol/g body weight. Serial blood samples were collected from the tail vein using heparinized capillary tubes at the indicated times after administration. The plasma (5 μL) obtained from each blood sample was mixed with 10 μL of 0.1% formic acid in 50% (v/v) acetonitrile/water, and subsequently, 50 μL of acetonitrile was added. After centrifugation, aliquots (50 μL) of the supernatant were mixed with equal volumes of 0.2% formic acid in water and then injected into the LC–MS/MS system. Pharmacokinetic parameters were obtained from the plasma concentration–time data by non-compartmental analysis using Phoenix WinNonlin Software (Certara Companies, NJ, USA).
Fig 4 Pharmacokinetic study of KS-133 and KS-133 NPs in mice. Concentration of peptides in plasma at indicated time points after administration of peptide with or without nanoformulation are presented. (A) Intravenous administration of KS-133 (n = 3, 1 nmol/g, mean ± SD). (B) Subcutaneous administration of KS-133 and KS-133 NPs (n = 5, 1 nmol/g, mean ± SD). (C) Blood samples were collected at the indicated times. The concentration of KS-133 in plasma was determined by LC–MS/MS (mean ± SD, *p < 0.05 by Student’s t-test). The pharmacokinetic parameters Cmax (μM), tmax (h), t1/2 (h), AUC0-t (μmol·h/L), AUC0-inf,pred (μmol·h/L), and MRTinf,pred (h) were calculated as described in the “Materials and methods” section. […]

CC[C@H](C)[C@H](NC(=O)[C@H](CC(C)C)NC(=O)[C@@H]1CC(=O)NCCCC[C@@H]2NC(=O)[C@@H]3CCCN3C(=O)[C@H](CC(C)C)NC(=O)[C@H](Cc3ccc(O)cc3)NC(=O)[C@@H]3CCCN3C(=O)[C@@H]3CCCN3C(=O)[C@@H](NC(C)=O)CSSC[C@H](NC(=O)[C@H](CC(C)C)NC(=O)[C@H](Cc3ccc(O)cc3)NC2=O)C(=O)N1)C(N)=O [KS-133] (Ac-CPPYLPKYLCDLI-NH2; disulfide 1-10; lactam 7-11)
AUC(0-inf) (i.v., n = 3, read-out: AUC0-inf, pred): 10.1 ± 1.73 µM·h
MRT (i.v., n = 3, read-out: MRTinf, pred): 58.8 ± 6.6 min
half-life (i.v., non-compartmental, n = 3, read-out: t1/2 (elimination half-life from plasma) (converted)): 40.8 min
AUC(0-t) (n = 3): 7.51 ± 1.77 µM·h
